Assay results from patent US20150005281A1, “PYRIMIDINE-2,4-DIAMINE DERIVATIVES AS KINASE INHIBITORS” (Cellzome Limited, priority 2011, published 2015).
Counter-ions that a name gives are not always drawn.

Experiments:
Assay type in all cases: binding
[1] = molecular target: T1, JAK1 (Homo sapiens, UniProt P23458); experiment: Kinobeads assay with immunodetection, JAK1; conditions: for IC50: Kinobeads assay, mixed Molt4/Ramos lysate, read-out: Inhibition values (IC50) JAK1
T1 construct: endogenous in cells; host or cells: Molt4 (ATCC CRL-1582) and Ramos (ATCC CRL-1596) cells; mixed lysate 1:2
How it was run: (§1)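 Steps: compound serially diluted 1:3 in DMSO; added with kinobeads to mixed Molt4/Ramos lysate; 3 h cold incubation; wash; SDS elution; antibody dot blot quantitation of each kinase; IC50 fitting.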

[2] = molecular target: T2, JAK2 (Homo sapiens, UniProt O60674); experiment: Kinobeads assay with immunodetection, JAK2; conditions: mixed Molt4/Ramos lysate, read-out: Inhibition values (IC50) JAK2
T2 construct: endogenous in cells; host or cells: Molt4 (ATCC CRL-1582) and Ramos (ATCC CRL-1596) cells; mixed lysate 1:2
How it was run: as §1

[3] = molecular target: T3, JAK3 (Homo sapiens, UniProt P52333); experiment: Kinobeads assay with immunodetection, JAK3; conditions: for IC50: Kinobeads assay, mixed Molt4/Ramos lysate, read-out: Inhibition values (IC50) JAK3
T3 construct: endogenous in cells; host or cells: Molt4 (ATCC CRL-1582) and Ramos (ATCC CRL-1596) cells; mixed lysate 1:2
T3 sequence (P52333 1-1124): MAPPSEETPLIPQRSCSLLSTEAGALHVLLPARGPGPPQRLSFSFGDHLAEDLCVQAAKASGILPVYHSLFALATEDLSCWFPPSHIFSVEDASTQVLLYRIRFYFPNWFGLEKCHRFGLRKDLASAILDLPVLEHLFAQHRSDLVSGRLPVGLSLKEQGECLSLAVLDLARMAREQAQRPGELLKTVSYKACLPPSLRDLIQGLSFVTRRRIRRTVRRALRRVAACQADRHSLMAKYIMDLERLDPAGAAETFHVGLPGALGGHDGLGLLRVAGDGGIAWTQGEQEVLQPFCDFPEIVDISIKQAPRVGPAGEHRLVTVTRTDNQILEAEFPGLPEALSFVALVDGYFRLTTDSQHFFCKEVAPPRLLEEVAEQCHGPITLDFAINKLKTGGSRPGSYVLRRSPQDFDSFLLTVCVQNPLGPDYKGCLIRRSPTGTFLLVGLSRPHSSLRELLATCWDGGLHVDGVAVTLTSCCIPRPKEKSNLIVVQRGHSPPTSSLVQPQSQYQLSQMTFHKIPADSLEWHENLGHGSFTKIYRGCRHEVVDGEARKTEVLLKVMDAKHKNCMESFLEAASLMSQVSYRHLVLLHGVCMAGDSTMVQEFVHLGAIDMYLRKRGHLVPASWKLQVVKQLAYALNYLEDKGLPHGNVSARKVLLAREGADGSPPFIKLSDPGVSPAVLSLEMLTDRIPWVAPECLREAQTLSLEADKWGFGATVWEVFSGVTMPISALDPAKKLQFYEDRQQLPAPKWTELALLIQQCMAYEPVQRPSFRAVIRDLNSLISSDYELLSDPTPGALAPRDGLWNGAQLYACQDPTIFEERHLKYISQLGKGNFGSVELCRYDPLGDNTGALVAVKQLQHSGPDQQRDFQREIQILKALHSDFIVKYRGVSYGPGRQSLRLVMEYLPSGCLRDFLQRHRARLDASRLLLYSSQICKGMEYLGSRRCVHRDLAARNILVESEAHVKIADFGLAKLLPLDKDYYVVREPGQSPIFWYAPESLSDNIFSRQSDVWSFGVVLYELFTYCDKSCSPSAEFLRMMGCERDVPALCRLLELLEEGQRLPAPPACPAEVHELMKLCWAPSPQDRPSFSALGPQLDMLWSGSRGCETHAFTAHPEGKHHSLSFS
How it was run: as §1

[4] = molecular target: T4, TYK2 (Homo sapiens, UniProt P29597); experiment: Kinobeads assay with immunodetection, TYK2; conditions: for IC50: Kinobeads assay, mixed Molt4/Ramos lysate, read-out: Inhibition values (IC50) Tyk2
T4 construct: endogenous in cells; host or cells: Molt4 (ATCC CRL-1582) and Ramos (ATCC CRL-1596) cells; mixed lysate 1:2
How it was run: as §1

T2 sequence (O60674 whole entry): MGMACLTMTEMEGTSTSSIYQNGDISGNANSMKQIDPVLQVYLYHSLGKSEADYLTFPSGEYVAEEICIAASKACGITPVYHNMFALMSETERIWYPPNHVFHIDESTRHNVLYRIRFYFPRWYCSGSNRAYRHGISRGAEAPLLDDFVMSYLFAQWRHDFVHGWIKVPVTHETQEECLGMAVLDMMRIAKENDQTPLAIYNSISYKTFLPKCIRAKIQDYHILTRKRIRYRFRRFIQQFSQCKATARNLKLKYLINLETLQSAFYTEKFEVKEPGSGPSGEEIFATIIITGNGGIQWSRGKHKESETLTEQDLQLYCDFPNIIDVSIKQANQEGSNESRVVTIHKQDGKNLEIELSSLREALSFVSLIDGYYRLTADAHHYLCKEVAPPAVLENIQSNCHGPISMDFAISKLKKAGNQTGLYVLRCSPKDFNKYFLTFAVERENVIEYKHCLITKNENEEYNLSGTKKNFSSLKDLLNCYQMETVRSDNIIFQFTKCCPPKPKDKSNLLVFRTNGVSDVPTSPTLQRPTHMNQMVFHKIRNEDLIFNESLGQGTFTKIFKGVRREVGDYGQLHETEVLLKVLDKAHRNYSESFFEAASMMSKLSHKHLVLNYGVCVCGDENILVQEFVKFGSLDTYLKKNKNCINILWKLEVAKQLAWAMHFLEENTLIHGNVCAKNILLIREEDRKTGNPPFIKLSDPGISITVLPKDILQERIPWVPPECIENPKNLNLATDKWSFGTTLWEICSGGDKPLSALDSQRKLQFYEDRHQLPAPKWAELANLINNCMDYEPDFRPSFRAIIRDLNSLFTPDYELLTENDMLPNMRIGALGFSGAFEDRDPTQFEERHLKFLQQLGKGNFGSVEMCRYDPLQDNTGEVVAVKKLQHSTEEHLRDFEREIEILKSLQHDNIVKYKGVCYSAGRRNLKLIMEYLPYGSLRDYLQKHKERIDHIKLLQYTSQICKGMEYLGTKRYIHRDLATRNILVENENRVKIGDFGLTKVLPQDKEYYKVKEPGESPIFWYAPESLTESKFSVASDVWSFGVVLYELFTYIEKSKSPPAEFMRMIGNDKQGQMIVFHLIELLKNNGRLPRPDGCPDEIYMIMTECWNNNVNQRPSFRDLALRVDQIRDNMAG
T4 sequence (P29597 whole entry): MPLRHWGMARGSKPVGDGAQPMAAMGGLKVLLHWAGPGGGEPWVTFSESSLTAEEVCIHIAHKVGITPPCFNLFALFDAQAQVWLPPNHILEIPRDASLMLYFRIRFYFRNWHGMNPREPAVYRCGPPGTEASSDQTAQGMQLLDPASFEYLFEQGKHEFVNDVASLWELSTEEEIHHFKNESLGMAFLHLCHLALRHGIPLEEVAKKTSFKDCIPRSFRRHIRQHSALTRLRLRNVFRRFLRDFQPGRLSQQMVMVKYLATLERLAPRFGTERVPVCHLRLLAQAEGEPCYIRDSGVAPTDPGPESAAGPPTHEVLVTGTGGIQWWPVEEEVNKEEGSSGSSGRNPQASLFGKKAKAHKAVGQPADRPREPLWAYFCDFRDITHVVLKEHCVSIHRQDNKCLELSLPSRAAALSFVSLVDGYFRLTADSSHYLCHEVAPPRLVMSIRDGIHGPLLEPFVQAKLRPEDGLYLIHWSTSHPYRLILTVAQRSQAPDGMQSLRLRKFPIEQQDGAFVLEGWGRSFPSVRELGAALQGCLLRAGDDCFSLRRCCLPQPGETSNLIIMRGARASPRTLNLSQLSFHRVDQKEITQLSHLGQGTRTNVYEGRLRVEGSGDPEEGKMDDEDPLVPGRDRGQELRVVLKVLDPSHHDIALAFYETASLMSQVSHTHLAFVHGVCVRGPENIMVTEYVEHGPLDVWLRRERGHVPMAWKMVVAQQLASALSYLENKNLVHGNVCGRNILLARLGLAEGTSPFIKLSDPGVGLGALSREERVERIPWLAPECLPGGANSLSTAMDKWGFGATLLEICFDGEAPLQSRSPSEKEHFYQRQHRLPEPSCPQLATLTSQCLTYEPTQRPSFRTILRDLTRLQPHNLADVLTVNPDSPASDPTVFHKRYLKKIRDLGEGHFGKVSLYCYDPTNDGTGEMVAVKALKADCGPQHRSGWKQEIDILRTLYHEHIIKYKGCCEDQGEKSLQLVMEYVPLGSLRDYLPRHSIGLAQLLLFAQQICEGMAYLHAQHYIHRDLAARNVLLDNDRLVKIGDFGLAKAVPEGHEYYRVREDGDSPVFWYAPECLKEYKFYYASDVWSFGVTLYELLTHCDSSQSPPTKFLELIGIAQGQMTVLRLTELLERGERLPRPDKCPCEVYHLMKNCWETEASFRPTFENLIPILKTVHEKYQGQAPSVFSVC
T1 sequence (P23458 whole entry): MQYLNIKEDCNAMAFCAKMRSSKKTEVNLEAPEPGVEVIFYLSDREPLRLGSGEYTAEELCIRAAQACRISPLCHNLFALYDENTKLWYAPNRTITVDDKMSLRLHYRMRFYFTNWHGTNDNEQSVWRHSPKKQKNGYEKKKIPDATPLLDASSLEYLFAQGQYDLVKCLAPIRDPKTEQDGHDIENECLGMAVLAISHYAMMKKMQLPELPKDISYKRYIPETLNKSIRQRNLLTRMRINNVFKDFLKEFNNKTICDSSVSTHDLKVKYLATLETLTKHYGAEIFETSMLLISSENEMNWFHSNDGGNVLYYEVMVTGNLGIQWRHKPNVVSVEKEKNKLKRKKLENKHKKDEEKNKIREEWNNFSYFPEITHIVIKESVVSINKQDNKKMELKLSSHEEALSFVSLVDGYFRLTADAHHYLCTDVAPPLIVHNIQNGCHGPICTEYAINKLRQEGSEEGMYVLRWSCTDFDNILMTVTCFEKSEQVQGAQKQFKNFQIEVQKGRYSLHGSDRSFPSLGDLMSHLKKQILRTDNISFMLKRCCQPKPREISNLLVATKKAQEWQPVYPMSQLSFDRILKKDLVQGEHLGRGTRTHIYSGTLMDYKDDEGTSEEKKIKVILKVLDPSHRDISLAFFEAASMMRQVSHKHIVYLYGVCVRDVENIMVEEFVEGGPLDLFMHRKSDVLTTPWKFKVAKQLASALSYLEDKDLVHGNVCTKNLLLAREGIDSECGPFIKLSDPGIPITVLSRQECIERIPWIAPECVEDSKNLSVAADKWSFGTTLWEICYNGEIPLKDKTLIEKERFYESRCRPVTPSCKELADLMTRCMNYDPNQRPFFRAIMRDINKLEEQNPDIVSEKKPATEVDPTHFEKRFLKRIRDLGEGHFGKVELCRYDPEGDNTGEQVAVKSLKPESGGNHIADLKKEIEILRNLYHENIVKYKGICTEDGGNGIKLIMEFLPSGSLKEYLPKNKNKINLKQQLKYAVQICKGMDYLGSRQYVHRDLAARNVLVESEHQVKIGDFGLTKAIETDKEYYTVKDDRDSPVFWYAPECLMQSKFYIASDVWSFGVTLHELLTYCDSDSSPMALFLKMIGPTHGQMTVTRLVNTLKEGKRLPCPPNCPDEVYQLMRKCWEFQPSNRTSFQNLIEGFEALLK

Row | SMILES | IC50 [1] [µM] | IC50 [2] [µM] | IC50 [3] [µM] | IC50 [4] [µM] | Selectivity ratio over JAK2, JAK3 [3] | Selectivity ratio over JAK2, Tyk2 [4] | Selectivity ratio over JAK2, JAK1 [1]
1 | CS(=O)(=O)N1CC(CNc2nc(Nc3cnn(CCO)c3)ncc2Cl)C1 [Example 19, 2-(4-((5-chloro-4-(((1-(methylsulfonyl)azetidin-3-yl)methyl)amino)pyrimidin-2-yl)amino)-1H-pyrazol-1-yl)ethanol] | 0.1 to 1 | 1 to 10 | < 0.1 | 0.1 to 1 | – | – | –
2 | CC(C)S(=O)(=O)CCN1CCC[C@@H]1CNc1nc(Nc2cnn(C)c2)ncc1Cl [Example 139, (R)-5-chloro-N^4-((1-(2-(isopropylsulfonyl)ethyl)pyrrolidin-2-yl)methyl)-N^2-(1-methyl-1H-pyrazol-4-yl)pyrimidine-2,4-diamine] | < 0.1 | 1 to 10 | < 0.1 | 0.1 to 1 | JAK3 = 83 | – | –
3 | CC(=O)N1CCCC[C@@H]1CNc1nc(Nc2cnn(CCO)c2)ncc1Cl [Example 40, (R)-1-(2-(((5-chloro-2-((1-(2-hydroxyethyl)-1H-pyrazol-4-yl)amino)pyrimidin-4-yl)amino)methyl)piperidin-1-yl)ethanone] | 0.1 to 1 | 0.1 to 1 | < 0.1 | < 0.1 | – | Tyk2 = 10 | –
4 | Cc1cnc(Nc2cnn(C)c2)nc1NC[C@@H]1CCCN1CCC#N [Example 106, (S)-3-(2-(((5-methyl-2-((1-methyl-1H-pyrazol-4-yl)amino)pyrimidin-4-yl)amino)methyl)pyrrolidin-1-yl)propanenitrile] | < 0.1 | 1 to 10 | 0.1 to 1 | < 0.1 | – | Tyk2 = 38 | –
5 | Cn1cc(Nc2ncc(F)c(NC[C@@H]3CCCN3)n2)cn1 [Example 71, (S)-5-fluoro-N^2-(1-methyl-1H-pyrazol-4-yl)-N^4-(pyrrolidin-2-ylmethyl)pyrimidine-2,4-diamine Hydrochloride] | 1 to 10 | > 10 | > 10 | 1 to 10 | – | – | –
6 | Cc1cnc(Nc2cnn(CC(F)F)c2)nc1NC[C@@H]1C[C@H](F)CN1CCC#N [Example 121, 3-((2S,4S)-2-(((2-((1-(2,2-difluoroethyl)-1H-pyrazol-4-yl)amino)-5-methylpyrimidin-4-yl)amino)methyl)-4-fluoropyrrolidin-1-yl)propanenitrile] | < 0.1 | 1 to 10 | 0.1 to 1 | < 0.1 | – | – | JAK1 = 56
7 | CC(C)NC(=O)Cn1cc(Nc2nccc(NC[C@H]3CCCN3C(=O)CC#N)n2)cn1 [Example 96, (R)-2-(4-((4-(((1-(2-cyanoacetyl)pyrrolidin-2-yl)methyl)amino)pyrimidin-2-yl)amino)-1H-pyrazol-1-yl)-N-isopropylacetamide] | 0.1 to 1 | > 10 | 1 to 10 | < 0.1 | – | Tyk2 = 555 | –
8 | C=CS(=O)(=O)N1CC[C@H](CNc2nc(Nc3cnn(C)c3)ncc2Cl)C1 [Example 25, (R)-5-chloro-N^2-(1-methyl-1H-pyrazol-4-yl)-N^4-((1-(vinylsulfonyl)pyrrolidin-3-yl)methyl)pyrimidine-2,4-diamine] | 0.1 to 1 | > 10 | < 0.1 | 0.1 to 1 | JAK3 = 556 | – | –
9 | CNC(=O)Cn1cc(Nc2ncc(Cl)c(NC[C@H]3CCCN3)n2)cn1 [Example 63, (R)-2-(4-(5-chloro-4-(pyrrolidin-2-ylmethylamino)pyrimidin-2-ylamino)-1H-pyrazol-1-yl)-N-methylacetamide] | 1 to 10 | > 10 | 1 to 10 | 1 to 10 | – | – | –
10 | Cn1cc(Nc2ncc(Cl)c(NC[C@H]3CCN(CCC#N)C3)n2)cn1 [Example 57, (R)-3-(3-((5-chloro-2-(1-methyl-1H-pyrazol-4-ylamino)pyrimidin-4-ylamino)methyl)pyrrolidin-1-yl)propanenitrile] | 0.1 to 1 | 1 to 10 | < 0.1 | 0.1 to 1 | – | – | JAK1 = 15
11 | Cn1cc(Nc2ncc(Cl)c(NC[C@H]3CCCN3CC#N)n2)cn1 [Example 131, (R)-2-(2-(((5-chloro-2-((1-methyl-1H-pyrazol-4-yl)amino)pyrimidin-4-yl)amino)methyl)pyrrolidin-1-yl)acetonitrile] | < 0.1 | 0.1 to 1 | < 0.1 | < 0.1 | JAK3 = 85 | – | –
12 | CN(C)C(=O)Cn1cc(Nc2ncc(Cl)c(NC[C@H]3CCCN3S(C)(=O)=O)n2)cn1 [Example 68, (R)-2-(4-(5-chloro-4-((1-(methylsulfonyl)pyrrolidin-2-yl)methylamino)pyrimidin-2-ylamino)-1H-pyrazol-1-yl)-N,N-dimethylacetamide] | < 0.1 | < 0.1 | < 0.1 | < 0.1 | – | Tyk2 = 13 | –
13 | Cn1cc(Nc2ncc(Cl)c(NC[C@@H]3CCCN(C(=O)CC#N)C3)n2)cn1 [Example 135, (S)-3-(3-(((5-chloro-2-((1-methyl-1H-pyrazol-4-yl)amino)pyrimidin-4-yl)amino)methyl)piperidin-1-yl)-3-oxopropanenitrile] | < 0.1 | 0.1 to 1 | < 0.1 | < 0.1 | JAK3 = 40 | – | –
14 | Cc1cnc(Nc2cnn(CC(F)F)c2)nc1NC[C@H]1CCN(C(=O)CC#N)C1 [Example 129, (R)-3-(3-(((2-((1-(2,2-difluoroethyl)-1H-pyrazol-4-yl)amino)-5-methylpyrimidin-4-yl)amino)methyl)pyrrolidin-1-yl)-3-oxopropanenitrile] | < 0.1 | 1 to 10 | 0.1 to 1 | < 0.1 | – | – | JAK1 = 139
15 | CC(=O)N1CCCC[C@H]1CNc1nc(Nc2cnn(CCO)c2)ncc1Cl [Example 33, (S)-1-(2-(((5-chloro-2-((1-(2-hydroxyethyl)-1H-pyrazol-4-yl)amino)pyrimidin-4-yl)amino)methyl)piperidin-1-yl)ethanone] | 1 to 10 | > 10 | 0.1 to 1 | 1 to 10 | – | – | JAK1 = 20
16 | Cn1cc(Nc2ncc(Cl)c(NCC3CCCN(C(=O)CC#N)C3)n2)cn1 (stereo not drawn) [Example 134, 3-(3-(((5-chloro-2-((1-methyl-1H-pyrazol-4-yl)amino)pyrimidin-4-yl)amino)methyl)piperidin-1-yl)-3-oxopropanenitrile] | < 0.1 | 0.1 to 1 | < 0.1 | < 0.1 | JAK3 = 32 | – | –
17 | C=CC(=O)N1CCC[C@@H]1CNc1nc(Nc2cnn(C)c2)ncc1Cl [Example 3, (R)-1-(2-(((5-chloro-2-((1-methyl-1H-pyrazol-4-yl)amino)pyrimidin-4-yl)amino)methyl)pyrrolidin-1-yl)prop-2-en-1-one] | 0.1 to 1 | 1 to 10 | 0.1 to 1 | 0.1 to 1 | – | Tyk2 = 10 | –
18 | CS(=O)(=O)N1CCC[C@H]1CNc1nc(Nc2cnn(CCO)c2)ncc1Cl [Example 13, (S)-2-(4-((5-chloro-4-(((1-(methylsulfonyl)pyrrolidin-2-yl)methyl)amino)pyrimidin-2-yl)amino)-1H-pyrazol-1-yl)ethanol] | < 0.1 | 0.1 to 1 | < 0.1 | < 0.1 | – | – | JAK1 = 13
